# Assay results taken from publication PMC6348381, “Discovery of an MLLT1/3 YEATS Domain Chemical Probe” (Angewandte Chemie (International Ed. in English), 2018).
# Tests used:
# Assay type in all cases: binding
# TRIM28 = target: T1, TRIM28 (Homo sapiens, UniProt Q13263); assay: Thermal shift assay, TRIM28
# T1 construct: Bromosporine with recombinant human bromodomain proteins; made in house
# Experimental: (§1) II.VII Thermal Shift Assay[6]
# (§2) Thermal melting experiments were carried out using an Mx3005p Real Time PCR machine (Stratagene). Proteins were buffered in 10 mM HEPES pH 7.5, 500 mM NaCl and assayed in a 96-well plate at a final concentration of 2 μM in 20 μL volume. Compounds were added at a final concentration of 50 μM. SYPRO Orange (Molecular Probes) was added as a fluorescence probe at a dilution of 1:1000. Excitation and emission filters for the SYPRO-Orange dye were set to 465 nm and 590 nm, respectively. The temperature was raised with a step of 3 °C per minute from 25 °C to 96 °C and fluorescence readings were taken at each interval. The unfolding curves were fitted using the Boltzmann equation to determine the middle point of the transition.
# PB1(2) = target: T2, PB1(2) (Homo sapiens, UniProt Q86U86); assay: Thermal shift assay, PB1(2)
# T2 construct: PB1(2); purchased in-house (SGC bromodomain thermal shift / AlphaScreen panel)
# T2 sequence (Q86U86 178-291 limits assumed): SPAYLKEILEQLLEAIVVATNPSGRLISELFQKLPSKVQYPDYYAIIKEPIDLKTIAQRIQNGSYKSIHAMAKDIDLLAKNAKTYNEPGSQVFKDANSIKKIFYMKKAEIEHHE
# BRD3(2) = target: T3, BRD3(2) (Homo sapiens, UniProt Q15059); assay: Thermal shift assay, BRD3(2)
# T3 construct: BRD3(2); purchased in-house (SGC bromodomain thermal shift / AlphaScreen panel)
# T3 sequence (Q15059 306-416 limits assumed): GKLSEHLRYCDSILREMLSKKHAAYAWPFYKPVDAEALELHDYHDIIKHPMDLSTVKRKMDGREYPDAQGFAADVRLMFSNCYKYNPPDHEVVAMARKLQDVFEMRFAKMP
# Experimental: as §1, §2
# LOC93349 = target: T4, LOC93349 (Homo sapiens, UniProt Q9H930); assay: Thermal shift assay, LOC93349
# T4 construct: purchased in-house (SGC bromodomain thermal shift / AlphaScreen panel)
# Experimental: as §1, §2
# BRD8 = target: T5, BRD8 (Homo sapiens, UniProt Q9H0E9); assay: Thermal shift assay, BRD8
# T5 construct: purchased in-house (SGC bromodomain thermal shift / AlphaScreen panel)
# T5 sequence (Q9H0E9 whole entry): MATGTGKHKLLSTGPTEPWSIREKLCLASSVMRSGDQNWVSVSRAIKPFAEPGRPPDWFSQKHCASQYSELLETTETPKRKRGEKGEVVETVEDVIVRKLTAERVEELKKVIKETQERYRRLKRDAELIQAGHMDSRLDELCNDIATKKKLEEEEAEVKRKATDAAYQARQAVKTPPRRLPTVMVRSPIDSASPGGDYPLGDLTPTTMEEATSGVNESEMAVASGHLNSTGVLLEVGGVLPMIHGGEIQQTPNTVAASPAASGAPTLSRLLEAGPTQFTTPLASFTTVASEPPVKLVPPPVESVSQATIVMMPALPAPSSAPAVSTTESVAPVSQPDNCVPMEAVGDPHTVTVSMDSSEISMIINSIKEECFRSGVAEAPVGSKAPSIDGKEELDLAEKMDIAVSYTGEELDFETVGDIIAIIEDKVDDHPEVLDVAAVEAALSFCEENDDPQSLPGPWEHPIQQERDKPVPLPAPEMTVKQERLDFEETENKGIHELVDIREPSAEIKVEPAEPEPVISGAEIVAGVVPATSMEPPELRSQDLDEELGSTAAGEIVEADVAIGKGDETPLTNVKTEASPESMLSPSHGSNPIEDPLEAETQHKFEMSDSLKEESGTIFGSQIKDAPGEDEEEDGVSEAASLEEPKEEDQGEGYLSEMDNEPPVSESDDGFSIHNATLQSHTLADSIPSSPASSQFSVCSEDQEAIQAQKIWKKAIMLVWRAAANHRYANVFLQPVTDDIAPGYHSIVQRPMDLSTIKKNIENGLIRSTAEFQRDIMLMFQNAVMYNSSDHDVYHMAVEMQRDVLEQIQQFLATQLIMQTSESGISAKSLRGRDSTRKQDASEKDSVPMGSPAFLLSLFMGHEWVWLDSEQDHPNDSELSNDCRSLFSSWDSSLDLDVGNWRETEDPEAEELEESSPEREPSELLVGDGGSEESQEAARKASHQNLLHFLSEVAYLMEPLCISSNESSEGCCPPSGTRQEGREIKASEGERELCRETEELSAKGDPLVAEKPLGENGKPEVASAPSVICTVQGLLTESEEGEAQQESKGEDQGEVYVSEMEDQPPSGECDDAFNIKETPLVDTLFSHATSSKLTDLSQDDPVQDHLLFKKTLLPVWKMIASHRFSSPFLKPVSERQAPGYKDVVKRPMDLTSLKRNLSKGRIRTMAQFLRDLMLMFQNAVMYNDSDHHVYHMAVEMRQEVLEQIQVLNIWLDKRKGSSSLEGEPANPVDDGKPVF
# Experimental: as §1, §2
# KIAA1240 = target: T6, KIAA1240 (Homo sapiens, UniProt Q9ULI0); assay: Thermal shift assay, KIAA1240
# T6 construct: purchased in-house (SGC bromodomain thermal shift / AlphaScreen panel)
# T6 sequence (Q9ULI0 1-1458): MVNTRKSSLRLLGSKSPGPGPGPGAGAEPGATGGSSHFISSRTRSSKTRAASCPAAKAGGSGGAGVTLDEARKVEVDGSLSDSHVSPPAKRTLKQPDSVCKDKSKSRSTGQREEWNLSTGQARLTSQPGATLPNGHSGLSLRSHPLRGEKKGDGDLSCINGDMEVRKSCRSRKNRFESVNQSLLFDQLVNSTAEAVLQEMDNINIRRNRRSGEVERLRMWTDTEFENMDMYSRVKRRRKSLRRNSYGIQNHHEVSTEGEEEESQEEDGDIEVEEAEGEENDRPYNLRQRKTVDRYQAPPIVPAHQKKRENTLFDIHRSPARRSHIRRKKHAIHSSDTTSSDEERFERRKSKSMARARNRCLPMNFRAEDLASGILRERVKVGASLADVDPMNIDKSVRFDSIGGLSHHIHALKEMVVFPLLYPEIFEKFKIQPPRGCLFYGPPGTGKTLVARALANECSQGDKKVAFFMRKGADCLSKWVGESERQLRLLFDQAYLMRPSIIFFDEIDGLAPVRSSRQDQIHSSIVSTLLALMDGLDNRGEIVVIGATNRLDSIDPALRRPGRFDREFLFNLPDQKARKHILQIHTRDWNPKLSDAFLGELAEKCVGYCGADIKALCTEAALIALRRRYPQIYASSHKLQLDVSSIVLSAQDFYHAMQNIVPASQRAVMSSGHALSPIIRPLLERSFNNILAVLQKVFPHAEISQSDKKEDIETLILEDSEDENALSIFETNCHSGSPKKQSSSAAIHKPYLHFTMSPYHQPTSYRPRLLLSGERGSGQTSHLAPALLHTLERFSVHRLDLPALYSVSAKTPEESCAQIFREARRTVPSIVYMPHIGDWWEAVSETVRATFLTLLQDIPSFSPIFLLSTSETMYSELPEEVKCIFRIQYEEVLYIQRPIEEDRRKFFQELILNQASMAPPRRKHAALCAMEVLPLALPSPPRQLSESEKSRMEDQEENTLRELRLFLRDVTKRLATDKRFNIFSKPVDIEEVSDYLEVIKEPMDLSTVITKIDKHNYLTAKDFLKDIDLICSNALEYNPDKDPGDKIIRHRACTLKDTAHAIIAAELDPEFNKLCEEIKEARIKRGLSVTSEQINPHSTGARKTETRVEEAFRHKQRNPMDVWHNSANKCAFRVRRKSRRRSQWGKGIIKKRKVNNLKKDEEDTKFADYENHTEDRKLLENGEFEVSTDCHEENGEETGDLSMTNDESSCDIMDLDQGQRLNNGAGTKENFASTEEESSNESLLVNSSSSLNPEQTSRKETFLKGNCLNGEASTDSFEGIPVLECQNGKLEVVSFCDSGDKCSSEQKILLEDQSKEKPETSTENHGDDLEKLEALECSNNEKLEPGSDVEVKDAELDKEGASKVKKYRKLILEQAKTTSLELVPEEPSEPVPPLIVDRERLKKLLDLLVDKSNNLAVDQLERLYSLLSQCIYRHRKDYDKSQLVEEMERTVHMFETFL
# Experimental: as §1, §2
# PB1(6) = target: T7, PB1(6) (Homo sapiens, UniProt Q86U86); assay: Thermal shift assay, PB1(6)
# T7 construct: PB1(6); purchased in-house (SGC bromodomain thermal shift / AlphaScreen panel)
# T7 sequence (Q86U86 773-914 limits assumed): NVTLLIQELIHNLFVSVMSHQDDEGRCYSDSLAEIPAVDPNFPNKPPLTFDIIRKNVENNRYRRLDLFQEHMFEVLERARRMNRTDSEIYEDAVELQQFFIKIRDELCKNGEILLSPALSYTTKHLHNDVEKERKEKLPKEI
# Experimental: as §1, §2
# BRD4(2) = target: T8, BRD4(2) (Homo sapiens, UniProt O60885); assay: Thermal shift assay, BRD4(2)
# T8 construct: BRD4(2); purchased in-house (SGC bromodomain thermal shift / AlphaScreen panel)
# Experimental: as §1, §2
# FALZ = FALZ (Homo sapiens, UniProt Q12830); assay: Thermal shift assay, FALZ; parameters: purchased in-house (SGC bromodomain thermal shift / AlphaScreen panel)
# Experimental: as §1, §2
# BRD3(1) = target: T9, BRD3(1) (Homo sapiens, UniProt Q15059); assay: Thermal shift assay, BRD3(1)
# T9 construct: BRD3(1); purchased in-house (SGC bromodomain thermal shift / AlphaScreen panel)
# T9 sequence (Q15059 24-144 limits assumed): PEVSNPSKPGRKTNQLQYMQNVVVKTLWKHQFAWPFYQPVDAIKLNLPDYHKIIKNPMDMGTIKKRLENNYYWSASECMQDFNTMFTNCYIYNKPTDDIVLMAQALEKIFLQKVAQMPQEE
# Experimental: as §1, §2
# BAZ2A = target: T10, BAZ2A (Homo sapiens, UniProt Q9UIF9); assay: Thermal shift assay, BAZ2A
# T10 construct: purchased in-house (SGC bromodomain thermal shift / AlphaScreen panel)
# T10 sequence (Q9UIF9 whole entry): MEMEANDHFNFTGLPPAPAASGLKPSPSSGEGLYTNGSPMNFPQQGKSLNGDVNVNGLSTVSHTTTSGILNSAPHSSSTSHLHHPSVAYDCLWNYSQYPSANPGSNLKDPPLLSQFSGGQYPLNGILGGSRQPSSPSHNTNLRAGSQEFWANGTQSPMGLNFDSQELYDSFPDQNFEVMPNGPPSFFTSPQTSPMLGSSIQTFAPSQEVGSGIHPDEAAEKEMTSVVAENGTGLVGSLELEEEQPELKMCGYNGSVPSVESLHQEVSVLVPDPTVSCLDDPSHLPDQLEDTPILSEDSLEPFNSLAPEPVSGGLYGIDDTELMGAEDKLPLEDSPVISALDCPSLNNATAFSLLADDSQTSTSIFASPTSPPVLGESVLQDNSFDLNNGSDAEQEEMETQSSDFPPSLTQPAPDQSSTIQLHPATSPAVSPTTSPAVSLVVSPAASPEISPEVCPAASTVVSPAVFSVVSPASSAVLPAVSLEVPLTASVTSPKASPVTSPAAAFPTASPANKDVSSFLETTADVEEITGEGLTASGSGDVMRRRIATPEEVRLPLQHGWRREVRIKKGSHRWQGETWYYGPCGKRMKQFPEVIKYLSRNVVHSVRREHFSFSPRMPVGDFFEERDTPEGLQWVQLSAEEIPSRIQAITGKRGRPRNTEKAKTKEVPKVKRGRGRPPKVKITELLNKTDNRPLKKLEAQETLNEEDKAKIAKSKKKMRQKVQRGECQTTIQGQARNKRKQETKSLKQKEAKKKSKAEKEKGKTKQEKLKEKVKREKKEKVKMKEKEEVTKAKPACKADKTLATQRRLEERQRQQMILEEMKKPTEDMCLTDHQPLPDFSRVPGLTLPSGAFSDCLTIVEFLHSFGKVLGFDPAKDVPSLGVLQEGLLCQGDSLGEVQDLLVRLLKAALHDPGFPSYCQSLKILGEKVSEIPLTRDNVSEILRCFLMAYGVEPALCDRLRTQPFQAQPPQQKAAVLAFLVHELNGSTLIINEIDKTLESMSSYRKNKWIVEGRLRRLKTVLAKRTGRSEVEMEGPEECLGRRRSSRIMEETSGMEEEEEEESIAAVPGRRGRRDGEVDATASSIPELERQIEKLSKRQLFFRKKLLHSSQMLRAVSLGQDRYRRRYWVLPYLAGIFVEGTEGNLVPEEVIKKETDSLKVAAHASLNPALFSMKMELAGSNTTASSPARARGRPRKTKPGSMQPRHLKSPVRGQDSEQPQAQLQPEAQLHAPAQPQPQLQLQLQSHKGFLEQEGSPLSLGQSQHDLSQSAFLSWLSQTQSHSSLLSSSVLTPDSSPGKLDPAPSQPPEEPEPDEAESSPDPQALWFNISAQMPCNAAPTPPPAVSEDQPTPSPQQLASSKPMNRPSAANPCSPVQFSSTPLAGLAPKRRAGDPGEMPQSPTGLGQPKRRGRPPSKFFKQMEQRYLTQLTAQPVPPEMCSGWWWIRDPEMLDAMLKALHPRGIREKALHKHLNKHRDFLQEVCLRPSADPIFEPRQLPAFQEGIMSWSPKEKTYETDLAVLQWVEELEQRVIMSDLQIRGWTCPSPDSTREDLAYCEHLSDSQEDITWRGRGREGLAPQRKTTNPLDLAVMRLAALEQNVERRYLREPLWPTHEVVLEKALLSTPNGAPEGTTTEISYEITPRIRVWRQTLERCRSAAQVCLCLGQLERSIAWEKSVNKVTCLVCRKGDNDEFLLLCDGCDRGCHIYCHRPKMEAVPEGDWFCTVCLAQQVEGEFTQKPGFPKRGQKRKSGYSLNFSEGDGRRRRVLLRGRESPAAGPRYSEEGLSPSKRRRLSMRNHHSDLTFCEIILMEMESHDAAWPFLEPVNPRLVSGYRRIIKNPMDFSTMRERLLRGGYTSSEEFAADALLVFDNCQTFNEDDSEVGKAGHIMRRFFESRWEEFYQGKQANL
# Experimental: as §1, §2
# SP140 = target: T11, SP140 (Homo sapiens, UniProt Q13342); assay: Thermal shift assay, SP140
# T11 construct: purchased in-house (SGC bromodomain thermal shift / AlphaScreen panel)
# T11 sequence (Q13342 whole entry): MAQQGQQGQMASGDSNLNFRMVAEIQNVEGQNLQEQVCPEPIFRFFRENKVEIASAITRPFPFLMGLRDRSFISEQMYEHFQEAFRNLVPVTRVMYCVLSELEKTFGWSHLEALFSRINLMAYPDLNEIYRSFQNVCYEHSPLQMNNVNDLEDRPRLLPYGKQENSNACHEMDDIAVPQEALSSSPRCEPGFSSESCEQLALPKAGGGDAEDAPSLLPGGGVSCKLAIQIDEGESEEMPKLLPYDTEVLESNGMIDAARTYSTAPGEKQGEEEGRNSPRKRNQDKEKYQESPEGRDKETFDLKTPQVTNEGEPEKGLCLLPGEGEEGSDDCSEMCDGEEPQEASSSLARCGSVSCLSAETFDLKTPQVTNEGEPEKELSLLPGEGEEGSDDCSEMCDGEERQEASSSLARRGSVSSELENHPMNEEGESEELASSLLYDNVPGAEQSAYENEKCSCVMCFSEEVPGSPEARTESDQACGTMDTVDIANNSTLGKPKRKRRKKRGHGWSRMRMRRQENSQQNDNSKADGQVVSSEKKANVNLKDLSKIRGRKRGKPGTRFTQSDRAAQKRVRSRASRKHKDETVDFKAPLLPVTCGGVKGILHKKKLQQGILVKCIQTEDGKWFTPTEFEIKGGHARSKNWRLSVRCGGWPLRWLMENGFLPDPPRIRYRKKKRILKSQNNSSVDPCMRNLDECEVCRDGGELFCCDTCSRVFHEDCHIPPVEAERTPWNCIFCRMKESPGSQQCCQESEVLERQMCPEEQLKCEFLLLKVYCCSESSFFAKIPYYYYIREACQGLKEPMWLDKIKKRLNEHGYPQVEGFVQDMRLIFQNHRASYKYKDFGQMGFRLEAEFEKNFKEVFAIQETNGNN
# Experimental: as §1, §2
# PCAF = target: T12, PCAF (Homo sapiens, UniProt Q92831); assay: Thermal shift assay, PCAF
# T12 construct: purchased in-house (SGC bromodomain thermal shift / AlphaScreen panel)
# WDR9(2) = target: T13, WDR9(2) (Homo sapiens, UniProt Q9NSI6); assay: Thermal shift assay, WDR9(2)
# T13 construct: Bromosporine with recombinant human bromodomain proteins; made in house
# T13 sequence (Q9NSI6 1313-1418 limits assumed): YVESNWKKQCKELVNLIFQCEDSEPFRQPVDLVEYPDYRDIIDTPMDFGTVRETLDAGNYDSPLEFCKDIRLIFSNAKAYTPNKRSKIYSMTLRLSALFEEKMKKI
# Experimental: as §1, §2
# EP300 = target: T14, EP300 (Homo sapiens, UniProt Q09472); assay: Thermal shift assay, EP300
# T14 construct: purchased in-house (SGC bromodomain thermal shift / AlphaScreen panel)
# Experimental: as §1, §2
# T1 sequence (Q13263 695-799 limits assumed): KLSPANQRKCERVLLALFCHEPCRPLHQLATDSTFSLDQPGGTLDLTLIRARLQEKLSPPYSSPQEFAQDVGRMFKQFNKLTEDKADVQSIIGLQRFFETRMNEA
SMILES,"Thermal stabilisation, TRIM28 (TRIM28; 50 μM compound)","Thermal stabilisation, PB1(2) (PB1(2); 50 μM compound)","Thermal stabilisation, BRD3(2) (BRD3(2); 50 μM compound)","Thermal stabilisation, LOC93349 (LOC93349; 50 μM compound)","Thermal stabilisation, BRD8 (BRD8; 50 μM compound)","Thermal stabilisation, KIAA1240 (KIAA1240; 50 μM compound)","Thermal stabilisation, PB1(6) (PB1(6); 50 μM compound)","Thermal stabilisation, BRD4(2) (BRD4(2); 50 μM compound)","Thermal stabilisation, FALZ (FALZ; 50 μM compound)","Thermal stabilisation, BRD3(1) (BRD3(1); 50 μM compound)","Thermal stabilisation, BAZ2A (BAZ2A; 50 μM compound)","Thermal stabilisation, SP140 (SP140; 50 μM compound)","Thermal stabilisation, PCAF (PCAF; 50 μM compound)","Thermal stabilisation, WDR9(2) (WDR9(2); 50 μM compound)","Thermal stabilisation, EP300 (EP300; 50 μM compound)",other results
C[C@H]1CCCN1Cc1nc2cc(NC(=O)c3ccc4c(cnn4C)c3)ccc2[nH]1 [Compound 92],-0.225,-0.17,-0.1,-1.05,-0.715,0.15,-0.365,0.1,-0.315,-0.42,0.25,-0.915,0.05,-0.775,0.145,
"CCOC(=O)Nc1cc(-c2ccc(C)c(NS(C)(=O)=O)c2)nn2c(C)nnc12 [Bromosporine, reference compound]",,,,,,,,,,,,,,,,"Thermal stabilisation, TRIM28 (TRIM28; 10 µM compound concentration): 0.265; Thermal stabilisation, PB1(2) (PB1(2); 10 µM compound concentration): 0.105; Thermal stabilisation, BRD3(2) (BRD3(2); 10 µM compound concentration): 6.56; Thermal stabilisation, LOC93349 (LOC93349; 10 µM compound concentration): 2.385; Thermal stabilisation, BRD8 (BRD8; 10 µM compound concentration): 0.74; Thermal stabilisation, KIAA1240 (KIAA1240; 10 µM compound concentration): 0.59; Thermal stabilisation, PB1(6) (PB1(6); 10 µM compound concentration): 0.82; Thermal stabilisation, BRD4(2) (BRD4(2); 10 µM compound concentration): 6.575; Thermal stabilisation, FALZ (FALZ; 10 µM compound concentration): 1.5; Thermal stabilisation, BRD3(1) (BRD3(1); 10 µM compound concentration): 5.275; Thermal stabilisation, BAZ2A (BAZ2A; 10 µM compound concentration): 1.125; Thermal stabilisation, SP140 (SP140; 10 µM compound concentration): -1.045; Thermal stabilisation, PCAF (PCAF; 10 µM compound concentration): 1.025; Thermal stabilisation, WDR9(2) (WDR9(2); 10 µM compound concentration): -1.225; Thermal stabilisation, EP300 (EP300; 10 µM compound concentration): 3.66"
COC(=O)c1ccc(C(=O)Nc2ccc3[nH]c(CN4CCCCC4)nc3c2)cc1 [Compound 1],0.02,0.105,0.675,0.035,-1.225,0.355,0.17,0.715,0.235,1.82,0.81,-0.15,0.895,-0.18,0.285,
